Measured values from patent US20230091848A1, “DISEASE DETECTION AND TREATMENT BASED ON PHENYLACETYL GLUTAMINE LEVELS” (The Cleveland Clinic Foundation, priority 2020, published 2023).

Tests used:
[1] = test system: MEG01 cells; test: Dynamic mass redistribution (DMR) in MEG01 cells; type: cell-based, human
Protocol: (§1) Before proceeding for the experiments, cells were subjected to overnight incubation in reduced serum media opti-MEM. […] The cells were briefly centrifuged at room temperature at low speed (100 g for 10-15 sec) to allow settling down the cells at the bottom of the plate. After that, cells were allowed to temperature equilibrate for 1 h at room temperature prior to run DMR measurement. Firstly, basal DMR responses were graphed for around 15 min to obtain a baseline read that defines the zero level and also ensures the signal is stable. […] DMR response signal was recorded for 60-90 minutes post compound of interest addition.

[2] = test system: washed human platelets; test: cAMP assay in washed human platelets; type: cell-based
Protocol: Real-time (RT) PCR in MEG01 cells: Total RNA was isolated from MEG01 cells following TRIZOL RNA isolation protocol post 40 h of siRNA transfection. […] Real time (RT) PCR was carried out following TaqMan Gene Expression Assays protocol using RT primers and probes of ADRA2A (assay Id Hs01099503_s1), ADRA2B (assay Id Hs00265081 s1) and ADRB2 (assay Id Hs00240532_s1) from ThermoFisher Scientific. cAMP assay in MEG01, Platelets and HEK293 cells: Intracellular cAMP levels were measured using CatchPoint Cyclic-AMP Fluorescent Assay Kit from molecular devices (Cat. R8089). Briefly, MEG01 cells were washed with 1×HBSS buffer with HEPES (20 mM; pH 7.4) and re-suspended in stimulation buffer (1×HBSS, HEPES (20 mM); pH 7.4, IBMX (0.5 mM), Rolipram (0.1 mM) and BSA (0.1%)). The cells were further seeded into 96 well cell culture plates with a density of ˜100 k cells per well in 100 μL stimulation buffer. Similarly, human washed platelets re-suspended very gently in stimulation buffer and seeded into a 96-well cell culture plates with ˜4-6 million platelets per well in 100 μL stimulation buffer. Both the MEG01 cells and platelets were kept thereafter at 37° C. incubator for 10 min before addition of the inhibitors or test compounds. Following incubation with stimulation buffer, 10 μL (10× concentration) of modulators/inhibitors (when necessary) were added and kept for 15 min at 37° C. […] For the quantification of cAMP, the lysed sample (40 μL), buffer control and cAMP calibrators were added in appropriate wells of a 96-well clear bottom, black wall cAMP assay plates (provided in the kit). […] The plate was covered with aluminum foil and left at room temperature for at least 10 min before reading fluorescence intensity in a FlexStation 3 Multi-Mode Microplate Reader-Molecular devices. […] Intracellular Ca^2+ measurement: Intracellular Ca^2+ in MEG01, HEL92.1.7, parental HEK293, β2-HEK293 (stable) cells, empty vector (EV) transfected HEK293 cells, ADRA2A transfected HEK293 cells and in α2B-HEK293 stable cells was measured using FLIPR Calcium 5 Assay Kit-Molecular devices (Cat. R8186). […]

[3] = test system: MEG01 cells; test: cAMP assay in MEG01 cells; type: cell-based, human
Protocol: Real-time (RT) PCR in MEG01 cells: Total RNA was isolated from MEG01 cells following TRIZOL RNA isolation protocol post 40 h of siRNA transfection. […] Real time (RT) PCR was carried out following TaqMan Gene Expression Assays protocol using RT primers and probes of ADRA2A (assay Id Hs01099503_s1), ADRA2B (assay Id Hs00265081 s1) and ADRB2 (assay Id Hs00240532_s1) from ThermoFisher Scientific. cAMP assay in MEG01, Platelets and HEK293 cells: Intracellular cAMP levels were measured using CatchPoint Cyclic-AMP Fluorescent Assay Kit from molecular devices (Cat. R8089). Briefly, MEG01 cells were washed with 1×HBSS buffer with HEPES (20 mM; pH 7.4) and re-suspended in stimulation buffer (1×HBSS, HEPES (20 mM); pH 7.4, IBMX (0.5 mM), Rolipram (0.1 mM) and BSA (0.1%)). The cells were further seeded into 96 well cell culture plates with a density of ˜100 k cells per well in 100 μL stimulation buffer. Similarly, human washed platelets re-suspended very gently in stimulation buffer and seeded into a 96-well cell culture plates with ˜4-6 million platelets per well in 100 μL stimulation buffer. Both the MEG01 cells and platelets were kept thereafter at 37° C. incubator for 10 min before addition of the inhibitors or test compounds. Following incubation with stimulation buffer, 10 μL (10× concentration) of modulators/inhibitors (when necessary) were added and kept for 15 min at 37° C. […] The test compounds were made in buffer T (1×HBSS, HEPES (20 mM); pH 7.4, IBMX (0.5 mM) and Rolipram (0.1 mM)). The reaction was stopped by adding 50 μL of lysis buffer (provided in the kit CatchPoint Cyclic-AMP Fluorescent Assay Kit Cat. R8089-Molecular Devices), further added with IBMX (0.5 mM) and Rolipram (0.1 mM)) and agitated for 10 min in a plate shaker to facilitate cell lysis. Lysed cells are immediately proceeded to cAMP assay. For the quantification of cAMP, the lysed sample (40 μL), buffer control and cAMP calibrators were added in appropriate wells of a 96-well clear bottom, black wall cAMP assay plates (provided in the kit). Thereafter, reconstituted rabbit anti-cAMP antibody (40 μL) was added to all the wells and mix for 5 min on a plate shaker to ensure mixing. In the next step, reconstituted HRP-cAMP conjugate (40 μL) was added to every well, mixed properly and kept at room temperature for 2 h. The plate contents were aspirated thereafter and washed with wash buffer (300 μL (provided in the kit)) 4 times. Spotlight red substrate (provided in the kit) was added to each well minimizing the time between starting and finishing in dark. The plate was covered with aluminum foil and left at room temperature for at least 10 min before reading fluorescence intensity in a FlexStation 3 Multi-Mode Microplate Reader-Molecular devices. […] For cAMP assay in adherent cell lines, parental HEK293, and β2-HEK293 (stable) cells were seeded into 96-well cell culture microplates with approximately 50 k cells per well in DMEM (100 μL) media supplemented with FBS (10%), penicillin (100 U/mL) and streptomycin (100 μg/mL) in a humidified atmosphere at 37° C. in 5% CO2. Cells were grown for 24 h before proceeding for cAMP experiment following similar method as described for MEG01 cells. Intracellular Ca^2+ measurement: Intracellular Ca^2+ in MEG01, HEL92.1.7, parental HEK293, β2-HEK293 (stable) cells, empty vector (EV) transfected HEK293 cells, ADRA2A transfected HEK293 cells and in α2B-HEK293 stable cells was measured using FLIPR Calcium 5 Assay Kit-Molecular devices (Cat. R8186). […]

[4] = Metabolism of phenylacetic acid after i.p. injection; type: in vivo; conditions: intraperitoneal (i.p.) injection in mice
[5] = test system: FeCl3-induced carotid artery injury model; test: Carotid artery FeCl3 injury thrombosis assay; type: in vivo, mice; conditions: carvedilol 1.5 g/kg for one week; PAGln i.p.
Protocol: Briefly, rhodamine 6G (100 μL; 0.5 mg/mL) was injected directly into the right jugular vein to label platelets. The left carotid artery was exposed and injured by placing a FeCl3-soaked filter paper for 1 minute. […] Time to cessation of blood flow through clot formation for all studies was determined by visual inspection by two different investigators. End points were set as cessation of blood flow for 30 seconds to 30 minutes.

[6] = test system: HEL92.1.7 cells; test: Dynamic mass redistribution (DMR) in HEL92.1.7 cells; type: cell-based, human; conditions: increasing concentrations
Protocol: as §1

**Q.** Which “PAGln-induced DMR response after G-protein modulators” value ([1]; PAGln 100 μM, PTX 100 ng/mL, CTX 1 μg/mL, YM-254890 0.5 μM, SCH-202676 1 μM) does the source give for `CN=c1nc(-c2ccccc2)n(-c2ccccc2)s1` [SCH-202676] here?
**A.** significantly reduced

**Q.** And the “PAGln-evoked cAMP production after GPCR modulators” value ([2]; pretreatment with modulator)?
**A.** inhibited PAGln-evoked cAMP production

**Q.** What about the “PAGln-evoked cAMP production after GPCR modulators” value ([3]; pretreatment with modulator) of the same compound?
**A.** inhibited PAGln-evoked cAMP production

**Q.** With `O=C(O)Cc1ccccc1` [phenylacetic acid] as the compound, how does the metabolic fate [4] read?
**A.** predominantly metabolized into PAGly

**Q.** For `Cc1ccc(OCC(O)C(C)NC(C)C)c2c1CCC2` (centres unmarked) [ICI118,551], which “DMR response to ATP after ADR inhibitors” value ([1]; ATP 50 μM, inhibitor 10 μM) is on record?
**A.** remained unchanged

**Q.** What about the “DMR response of isoproterenol (ISO) after ADR inhibitors” value ([1]; ISO 10 μM, inhibitor 10 μM) of the same compound?
**A.** diminished

**Q.** And the “PAGln-induced DMR response after ADR inhibitors” value ([1]; PAGln 100 μM, inhibitor 10 μM, 30 min)?
**A.** substantially reduced

**Q.** And the “intracellular cAMP production after ISO treatment, with ADR inhibitors” value [2]?
**A.** reduced

**Q.** What about the “PAGln induced intracellular cAMP production after ADR inhibitors” value ([2]; PAGln 5 min exposure) of the same compound?
**A.** inhibited PAGln (5 min exposure) induced intracellular cAMP production

**Q.** What about the “intracellular cAMP production after ISO treatment, with ADR inhibitors” value [3] of the same compound?
**A.** reduced

**Q.** And the “PAGln induced intracellular cAMP production after ADR inhibitors” value ([3]; PAGln 100 μM, 5 min exposure, inhibitor 10 μM)?
**A.** inhibited PAGln (5 min exposure) induced intracellular cAMP production

**Q.** With `COc1ccccc1OCCNCC(O)COc1cccc2[nH]c3ccccc3c12` (centres unmarked) [carvedilol] as the compound, how does the “pro-thrombotic effect of PAGln on clot formation rate and occlusion time” value [5] read?
**A.** reversed by pretreatment of mice with carvedilol

**Q.** Which “DMR dose response curves” value ([1]; increasing concentrations) does the source give for `NC[C@H](O)c1ccc(O)c(O)c1` [norepinephrine] here?
**A.** saturable and specific DMR dose response curves

**Q.** And the DMR dose-response signal [6]?
**A.** like norepinephrine
